# Test results taken from patent publication US9434711B2 (Janssen Pharmaceutica, NV, priority 2007, dated 2016).
# pIC50: −log10 of the molar value. Like-named read-outs stand apart in the source and are kept apart here.
# Legend:
# canine TRPM8 = canine TRPM8 (Canis lupus familiaris, UniProt Q1A7N1); assay: In Vitro Canine TRPM8 Functional Assay (Ca2+ fluorescence, icilin activation); format: cell-based; conditions: for pIC50: read-out: IC50; for inhibition at 0.2 µM: read-out: % Inh @ 0.2
# Procedure, shortened: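 HEK293 cells stably expressing canine TRPM8 were loaded with Calcium 3 dye (35 min at 37 °C, then 25 min at room temperature). Compound was added and Ca2+ fluorescence was read for 5 min before icilin at a concentration giving about 80% maximal response. EC50/IC50 came from eight-point dose-response curves, quadruplicate wells.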
# Male Sprague Dawley rats = assay: Chronic Constriction Injury (CCI)-Induced Model of Neuropathic Pain, Acetone-Induced Hypersensitivity; format: in vivo, rat; conditions: Rattus norvegicus, po, Na salt form; for inhibition in vivo at 30 mg/kg: 30 mg/kg p.o.; for inhibition in vivo at 10 mg/kg: 10 mg/kg p.o.
# Text: Male Sprague Dawley rats (225-450 g; n=5-8/treatment) were used to evaluate the ability of selected compounds of the formula (I) to reverse CCI-induced cold hypersensitivity. Four loose ligatures of 4-0 chromic gut were surgically placed around the left sciatic nerve under inhalation anesthesia as described by Bennett et al (Bennett G J, Xie Y K. Pain 1988, 33(1): 87-107). Fourteen to 35 days following CCI surgery, subjects were placed in elevated observation chambers containing wire mesh floors and five applications of acetone (0.05 mL/application separated by approximately 5 minutes) were spritzed onto the plantar surface of the paw using a multidose syringe. An abrupt withdrawal or lifting of the paw was considered a positive response. The number of positive responses was recorded for each rat over the five trials. Following baseline withdrawal determinations, compounds of formula (I) are administered in an appropriate vehicle, such as hydroxypropyl-β-cyclodextrin (HP β CD), methylcellulose, Methocel, 10% Solutol, or H2O, or the like, by the appropriate route, i.p. or p.o. […] Results are presented as a percent inhibition of […], which was calculated for each subject as [1−(test compound withdrawals/pre-test withdrawals)]×100 and then averaged by treatment.
# [1] = HEK293 cells stably expressing canine TRPM8, icilin activation, eight-point dose-response
# [2] = compound at 0.2 μM, canine TRPM8, icilin activation
# [3] = 3 h, Water, pretreatment 3 hr, read-out: Percent Inhibition
# [4] = 4 h, Water, pretreatment 4 hr, read-out: Percent Inhibition
# [5] = 3 h, HPbCD, pretreatment 3 hr, read-out: Percent Inhibition
# [6] = 0.2 μM compound, HEK293 cells stably expressing canine TRPM8, icilin activation
# [7] = HEK293 cells stably expressing canine TRPM8, icilin activation, average of two or more determinations
# [8] = compound at 0.5 μM, canine TRPM8, icilin activation
# canine TRPM8, sequence (Q1A7N1 1-1104): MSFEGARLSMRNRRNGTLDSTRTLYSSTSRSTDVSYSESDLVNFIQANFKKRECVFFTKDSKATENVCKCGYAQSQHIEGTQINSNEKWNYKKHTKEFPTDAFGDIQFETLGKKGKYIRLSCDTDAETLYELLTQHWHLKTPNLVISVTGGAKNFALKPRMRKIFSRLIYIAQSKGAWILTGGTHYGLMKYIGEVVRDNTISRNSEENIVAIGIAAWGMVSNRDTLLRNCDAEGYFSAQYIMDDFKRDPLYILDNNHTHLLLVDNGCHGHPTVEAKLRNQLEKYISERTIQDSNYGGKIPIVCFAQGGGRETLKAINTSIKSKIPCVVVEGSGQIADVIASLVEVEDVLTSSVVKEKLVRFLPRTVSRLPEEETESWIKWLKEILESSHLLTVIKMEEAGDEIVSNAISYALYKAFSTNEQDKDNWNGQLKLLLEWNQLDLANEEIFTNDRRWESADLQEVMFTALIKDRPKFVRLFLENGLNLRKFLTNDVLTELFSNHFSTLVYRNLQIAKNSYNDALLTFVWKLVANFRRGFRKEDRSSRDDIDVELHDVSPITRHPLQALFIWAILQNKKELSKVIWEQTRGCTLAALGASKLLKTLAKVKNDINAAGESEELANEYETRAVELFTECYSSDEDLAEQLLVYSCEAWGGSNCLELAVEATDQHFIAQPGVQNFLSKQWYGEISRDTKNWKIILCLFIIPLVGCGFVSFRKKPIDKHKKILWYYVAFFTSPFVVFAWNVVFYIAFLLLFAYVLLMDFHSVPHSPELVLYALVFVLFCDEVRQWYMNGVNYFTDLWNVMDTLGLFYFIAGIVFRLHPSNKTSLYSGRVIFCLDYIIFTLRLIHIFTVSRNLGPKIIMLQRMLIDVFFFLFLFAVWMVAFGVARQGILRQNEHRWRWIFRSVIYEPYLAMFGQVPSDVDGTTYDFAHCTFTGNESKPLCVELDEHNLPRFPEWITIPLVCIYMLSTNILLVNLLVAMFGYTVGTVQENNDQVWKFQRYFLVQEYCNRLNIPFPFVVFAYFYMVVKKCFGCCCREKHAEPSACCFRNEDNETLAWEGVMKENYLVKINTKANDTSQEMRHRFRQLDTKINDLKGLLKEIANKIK
compound,measurement,setting,value
"O=C(O)c1ccc(S(=O)(=O)N(Cc2ccc(F)c(C(F)(F)F)c2)c2sc3ccccc3c2Br)cc1 [Compound 292, N-(3-Bromo-benzo[b]thiophen-2-yl)-N-(4-fluoro-3-trifluoromethyl-benzyl)-4-carboxy-benzenesulfonamide]",pIC50,canine TRPM8; [1],9.10
same,inhibition at 0.2 µM,canine TRPM8; [2],98%
same,inhibition at 0.5 µM,"canine TRPM8; compound at 0.5 μM, canine TRPM8, icilin activation, read-out: % Inh @ 0.5",100%
same,inhibition in vivo at 30 mg/kg,"Male Sprague Dawley rats; 2 h, Water, pretreatment 2 hr, read-out: Percent Inhibition",60%
same,inhibition in vivo at 3 mg/kg,"Male Sprague Dawley rats; 3 h, 3 mg/kg p.o., Water, pretreatment 3 hr, read-out: Percent Inhibition",7%
same,inhibition in vivo at 10 mg/kg,Male Sprague Dawley rats; [3],16%
same,inhibition in vivo at 30 mg/kg,Male Sprague Dawley rats; [3],21%
same,inhibition in vivo at 100 mg/kg,"Male Sprague Dawley rats; 3 h, 100 mg/kg p.o., Water, pretreatment 3 hr, read-out: Percent Inhibition",67%
same,ED50,"Male Sprague Dawley rats; Water, pretreatment 3 hr",70 mg/kg
"O=C(O)c1ccc(S(=O)(=O)N(CCC2CC2)c2sc3ccccc3c2Br)cc1 [Compound 396, N-(3-Bromo-benzo[b]thiophen-2-yl)-N-(2-cyclopropylethyl)-4-carboxy-benzenesulfonamide]",pIC50,canine TRPM8; [1],8.30
same,inhibition at 0.2 µM,canine TRPM8; [2],101%
same,inhibition in vivo at 30 mg/kg,Male Sprague Dawley rats; [4],50%
"Cc1c(N(Cc2ccc(F)cc2)S(=O)(=O)c2ccc(C(=O)O)cc2)sc2ccccc12 [Compound 487, N-(3-Methyl-benzo[b]thiophen-2-yl)-N-(4-fluoro-benzyl)-4-carboxy-benzenesulfonamide]",pIC50,canine TRPM8; [1],8.70
same,inhibition at 0.2 µM,canine TRPM8; [2],101%
same,inhibition in vivo at 10 mg/kg,Male Sprague Dawley rats; [5],43%
same,inhibition in vivo at 30 mg/kg,Male Sprague Dawley rats; [5],66%
"Cc1c(N(Cc2ccc(F)c(F)c2)S(=O)(=O)c2ccc(C(=O)O)cc2)sc2ccccc12 [Compound 488, N-(3-Methyl-benzo[b]thiophen-2-yl)-N-(3,4-difluoro-benzyl)-4-carboxy-benzenesulfonamide]",pIC50,canine TRPM8; [1],9.00
same,inhibition at 0.2 µM,canine TRPM8; [2],101%
same,inhibition in vivo at 30 mg/kg,"Male Sprague Dawley rats; 2 h, HPbCD, pretreatment 2 hr, read-out: Percent Inhibition",43%
"Cc1c(N(Cc2ccc(F)c(Cl)c2)S(=O)(=O)c2ccc(C(=O)O)cc2)sc2ccccc12 [Compound 489, N-(3-Methyl-benzo[b]thiophen-2-yl)-N-(4-fluoro-3-chloro-benzyl)-4-carboxy-benzenesulfonamide]",pIC50,canine TRPM8; [1],9.22
same,inhibition at 0.2 µM,canine TRPM8; [2],101%
same,inhibition in vivo at 30 mg/kg,Male Sprague Dawley rats; [3],86%
same,inhibition in vivo at 10 mg/kg,Male Sprague Dawley rats; [4],13%
same,inhibition in vivo at 17.8 mg/kg,"Male Sprague Dawley rats; 4 h, 17.8 mg/kg p.o., Water, pretreatment 4 hr, read-out: Percent Inhibition",60%
same,inhibition in vivo at 30 mg/kg,Male Sprague Dawley rats; [4],57%
same,inhibition in vivo at 56 mg/kg,"Male Sprague Dawley rats; 4 h, 56 mg/kg p.o., Water, pretreatment 4 hr, read-out: Percent Inhibition",70%
same,ED50,"Male Sprague Dawley rats; Water, pretreatment 4 hr",23 mg/kg
"Cc1c(N(Cc2ccc(OC(F)F)cc2)S(=O)(=O)c2ccc(C(=O)O)cc2)sc2ccccc12 [Compound 490, N-(3-Methyl-benzo[b]thiophen-2-yl)-N-(4-difluoromethoxy-benzyl)-4-carboxy-benzenesulfonamide]",pIC50,canine TRPM8; [1],9.00
same,inhibition at 0.2 µM,canine TRPM8; [2],101%
same,inhibition in vivo at 30 mg/kg,"Male Sprague Dawley rats; 1 h, HPbCD, pretreatment 1 hr, read-out: Percent Inhibition",23%
"Cc1c(N(Cc2ccc(C(F)(F)F)c(F)c2)S(=O)(=O)c2ccc(C(=O)O)cc2)sc2ccccc12 [Compound 497, N-(3-Methyl-benzo[b]thiophen-2-yl)-N-(3-fluoro-4-trifluoromethyl-benzyl)-4-carboxy-benzenesulfonamide]",pIC50,canine TRPM8; [1],9.40
same,inhibition at 0.2 µM,canine TRPM8; [2],101%
same,inhibition in vivo at 30 mg/kg,Male Sprague Dawley rats; [4],60%
"Cc1c(N(Cc2ccc3c(c2)OC(F)(F)O3)S(=O)(=O)c2ccc(C(=O)O)cc2)sc2ccccc12 [Compound 524, N-(3-Methyl-benzo[b]thiophen-2-yl)-N—(C-(2,2-difluoro-benzo[1,3]dioxol-5-yl)-methyl)-4-carboxy-benzenesulfonamide]",inhibition at 0.2 µM,canine TRPM8; [2],102%
same,inhibition in vivo at 30 mg/kg,Male Sprague Dawley rats; [5],46%
"Cc1c(N(Cc2ccc(F)cc2)S(=O)(=O)c2ccc(OCc3ccc(F)cc3)c(F)c2)sc2ccccc12 [Compound 845, 3-Fluoro-N-(4-fluoro-benzyl)-4-(4-fluoro-benzyloxy)-N-(3-methyl-benzo[b]thiophen-2-yl)-benzenesulfonamide]",inhibition at 0.2 µM,canine TRPM8; [6],24%
"Cc1c(N(Cc2ccccc2)S(=O)(=O)c2ccc(OCc3ccccc3)c(F)c2)sc2ccccc12 [Compound 846, N-(Benzyl)-4-benzyloxy-3-fluoro-N-(3-methyl-benzo[b]thiophen-2-yl)-benzenesulfonamide]",inhibition at 0.2 µM,canine TRPM8; [6],28%
"CCS(=O)(=O)N(Cc1ccnc(F)c1)c1cc2ccccc2s1 [Compound 847, N-(Benzo[b]thiophen-2-yl)-N-(2-fluoro-pyridin-4-ylmethyl)-ethane-sulfonamide]",inhibition at 0.2 µM,canine TRPM8; [6],33%
"CCS(=O)(=O)N(Cc1ccnc(F)c1)c1sc2ccccc2c1C(C)=O [Compound 848, N-(3-Acetyl-benzo[b]thiophen-2-yl)-N-(2-fluoro-pyridin-4-ylmethyl)-ethansulfonamide]",inhibition at 0.2 µM,canine TRPM8; [6],68%
"CCCCNS(=O)(=O)N(CCCC)c1sc2ccccc2c1Br [Compound 849, N-(3-Bromo-benzo[b]thiophen-2-yl)-N,N′-bis-butyl-sulfamide]",inhibition at 0.2 µM,canine TRPM8; [6],25%
"CCCCNS(=O)(=O)N(CCCC)c1cc2ccccc2s1 [Compound 850, N-Benzo[b]thiophen-2-yl-N,N′-bis-butyl-sulfamide]",inhibition at 0.2 µM,canine TRPM8; [6],28%
"O=C(Nc1ccc(S(=O)(=O)N(CCC2CC2)c2sc3ccccc3c2Cl)cc1)C(F)(F)F [Cpd 694, N-(3-Chloro-benzo[b]thiophen-2-yl)-N-(2-cyclopropyl-ethyl)-4-trifluoroacetamido-benzenesulfonamide]",inhibition at 0.2 µM,canine TRPM8; [2],42%
O=S(=O)(c1ccccc1)N(CCCF)c1sc2ccccc2c1CO [Cpd 820],% Inh @ 0.2 (μM),canine TRPM8; [6],102%
same,pIC50,canine TRPM8; [7],7.55
"N-(3,4-Difluoro-benzyl)-N-thieno[3,2-b]pyridin-2-yl-benzenesulfonamide [Compound 146]",pIC50,canine TRPM8; [1],7.32
same,% Inh @ 0.5 (μM),canine TRPM8; [8],97%
"N-(3-Bromo-thieno[3,2-b]pyridin-2-yl)-N-(3,4-difluoro-benzyl)-benzenesulfonamide and N-(3-chloro-thieno[3,2-b]pyridin-2-yl)-N-(3,4-difluoro-benzyl)-benzenesulfonamide [Compound 145]",pIC50,canine TRPM8; [1],7.85
same,% Inh @ 0.5 (μM),canine TRPM8; [8],100%
"N-(3-Chloro-benzo[b]thiophen-2-yl)-N-(4,4,4-trifluoro-butyl)-4-(5-oxo-4,5-dihydro-[1,2,4]oxadiazol-3-yl)-benzenesulfonamide [Compound 515]",% Inh @ 0.2 (μM),canine TRPM8; [2],49%
N-(3-Cyclopentyl-benzo[b]thiophen-2-yl)-N-(4-fluoro-3-trifluoromethyl-benzyl)-4-carbomethoxy-benzenesulfonamide [Compound 501],% Inh @ 0.2 (μM),canine TRPM8; [2],31%
N-(3-Methyl-benzo[b]thiophen-2-yl)-N-(4-fluoro-3-trifluoromethyl-benzyl)-4-pyrazol-1-yl-benzenesulfonamide [Compound 332],pIC50,canine TRPM8; [1],8.15
same,% Inh @ 0.2 (μM),canine TRPM8; [2],100%
N-(3-Methyl-benzo[b]thiophen-2-yl)-N-(4-fluoro-3-trifluoromethyl-benzyl)-4-thiomethyl-pyridin-3-yl-sulfonamide [Compound 378],pIC50,canine TRPM8; [1],7.01
same,% Inh @ 0.2 (μM),canine TRPM8; [2],85%
"N-(3-Methyl-benzo[b]thiophen-2-yl)-N-(5,5,5-trifluoro-pentyl)-4-(5-oxo-4,5-dihydro-[1,2,4]oxadiazol-3-yl)-pyrid-3-ylsulfonamide [Compound 809]",% Inh @ 0.2 (μM),canine TRPM8; [6],103%
same,pIC50,canine TRPM8; [7],8.16
"N-(3-Methyl-benzo[b]thiophen-2-yl)-N-(5,5,5-trifluoro-pentyl)-4-thiomorpholin-4-yl-benzenesulfonamide [Compound 749]",% Inh @ 0.2 (μM),canine TRPM8; [2],64%
N-(3-Methyl-benzo[b]thiophen-2-yl)-N-(cyclopropyl-ethyl)-4-morpholino-3-pyridyl-sulfonamide [Compound 798],% Inh @ 0.2 (μM),canine TRPM8; [6],102%
same,pIC50,canine TRPM8; [7],7.44
"N-(Benzo[b]thiophen-2-yl)-N-(3,3,3-trifluoro-propyl)-4-(5-oxo-4,5-dihydro-[1,2,4]oxadiazol-3-yl)-benzenesulfonamide [Compound 597]",% Inh @ 0.2 (μM),canine TRPM8; [2],25%
